Test results as given in article PMC7179112, “Antimicrobial, Antioxidant, and Anticancer Activities of Some Novel Isoxazole Ring Containing Chalcone and Dihydropyrazole Derivatives” (Molecules, 2020).
In brackets after ≈: the same amount, converted by molar mass.

What was measured:
[1] = tested on: Pseudomonas aeruginosa; test: Antibacterial activity, serial tube dilution method; type: cell-based; conditions: Pseudomonas aeruginosa; Gram-negative; serial tube dilution; read-out: MIC P aeruginosa
Protocol: (§1) The target chalcones (17–31) and pyrazolines (32–46) were tested for their antimicrobial activities by serial tube dilution method against two types of bacterial and fungal strains (Table 1 and Table 2). The bacterial strains used for the testing, including Gram-positive Staphylococcus aureus and Gram-negative Pseudomonas aeruginosa, whereas the fungal strains employed were Aspergillus niger and Candida tropicalis.
(§2) The antibacterial and antifungal activity of the novel chalcones (17 to 31) and dihydropyrazoles (32 to 46) against the selected bacterial and fungal strains was assessed by following the procedure described in our previous paper.

[2] = tested on: Staphylococcus aureus; test: as above; type: cell-based; conditions: Staphylococcus aureus; Gram-positive; serial tube dilution; read-out: MIC S aureus
Protocol: as §1, §2

[3] = tested on: Aspergillus niger; test: Antifungal activity, serial tube dilution method; type: cell-based
Protocol: as §1, §2

[4] = tested on: Candida tropicalis; test: Antifungal activity, serial tube dilution method; type: cell-based; conditions: read-out: MIC C tropicalis
Protocol: as §1, §2

[5] = DPPH free radical scavenging assay; conditions: antioxidant activity; average of three independent experiments
Protocol: The antioxidant activity of all 30 compounds was assessed using 1,1-diphenyl-2-picrylhydrazine (DPPH) free radical scavenging assay and the results are the average of three independent experiments (Table 3). Gallic acid was employed as a positive control. […] In the disubstituted series (20–25), compound 25 with substitutions at position 3 and 5 on the phenyl ring gave the highest activity of 9 µg/mL.
The purpose of this study was to evaluate the antioxidant activity of chalcones and pyrazolines using the DPPH free radical assay. The percentage of antioxidant activity (AA%) of all the compounds was assessed by the DPPH free radical assay. The measurement of the DPPH radical scavenging activity was performed according to methodology described by Brand-Williams et al. The samples were reacted with the stable DPPH radical in an ethanol solution. A 0.1 mM solution of DPPH was prepared by dissolving DPPH in methanol. Gallic acid was taken as a reference standard and different concentrations of test samples (5–100 µg/mL) and standard (1.0, 2.5, and 5.0 µg/mL) were prepared using methanol. One milliliter of 0.1 mM DPPH solution was added to 3 mL of all concentrations of test samples and standard separately. These mixtures were kept in dark for about 30 min and the absorbance was measured at 517 nm. The capability to scavenge the DPPH radical was calculated using the formula:(1) DPPH scavanged (%)= Absorbance of control−Absorbance of sample/Absorbance of control∗100 when DPPH reacted with an antioxidant compound and was reduced, the change in color (from deep violet to light yellow) was read [Absorbance (Abs)] at 517 nm after […] of reaction using a UV-VIS spectrophotometer.

[6] = tested on: prostate cancer cell line, DU-145; test: MTT assay anticancer activity; type: cell-based; conditions: Homo sapiens, MTT assay, mean ± SD (n = 3)
Protocol: All the 30 compounds were evaluated for their anticancer potency against the prostate cancer cell line, DU-145, employing colorimetric tetrazolium dye (MTT) assay. […] Among the disubstituted series 20–25, substitution at position 3 and 4 (compound 24) produced the best activity but was lower than the standard. […] Similar phenomena can be seen among the dihydropyrazole series.
The in vitro anticancer activity of chalcones (17 to 31) and dihydropyrazoles (32 to 46) was evaluated by the Mosmann’s MTT assay as described previously.

[7] = tested on: Human Normal Cells (L02); test: MTT assay toxicity on normal cells; type: cell-based
[8] = tested on: bacterial and fungal strains (S. aureus, P. aeruginosa, A. niger, C. tropicalis); test: Antibacterial and antifungal activity (all strains); type: cell-based; conditions: range over bacterial and fungal strains
Protocol: as §1, §2

[9] = tested on: Staphylococcus aureus and Pseudomonas aeruginosa; test: Antibacterial activity (strain not named); type: cell-based; conditions: text/figure value, strain not named
Protocol: as §1, §2

[10] = tested on: Aspergillus niger and Candida tropicalis; test: Antifungal activity (strain not named); type: cell-based
Protocol: as §1, §2

| Compound | MIC [1] [µg/mL] | MIC [2] [µg/mL] | MIC [3] [µg/mL] | MIC [4] [µg/mL] | DPPH assay IC50 [5] [µg/mL] | IC50 [6] [µg/mL] | IC50 [7] [µg/mL] | MIC [8] [µg/mL] | MIC [9] [µg/mL] | IC50 [10] [µg/mL] | antifungal MIC ([10]; text/figure value, strain not named) [µg/mL] |
| --- | --- | --- | --- | --- | --- | --- | --- | --- | --- | --- | --- |
| COc1cccc(/C=C/C(=O)c2ccno2)c1 [Compound 18] | 128 (≈ 558 µM) | 128 (≈ 558 µM) | 256 (≈ 1120 µM) | 256 (≈ 1120 µM) | 38 ± 2 | 20 ± 1 (≈ 87.2 µM) | > 40 | 64 to 256 (≈ 279 to 1120 µM) | – | – | – |
| COc1cc(/C=C/C(=O)c2ccno2)cc(OC)c1 [Compound 25] | 256 (≈ 987 µM) | 256 (≈ 987 µM) | 256 (≈ 987 µM) | 512 (≈ 1970 µM) | 9 ± 1 | 12 ± 1 (≈ 46.3 µM) | > 40 | 64 to 256 (≈ 247 to 987 µM) | – | – | – |
| COc1ccc(/C=C/C(=O)c2ccno2)c(OC)c1OC [Compound 26] | 64 (≈ 221 µM) | 64 (≈ 221 µM) | 128 (≈ 442 µM) | 128 (≈ 442 µM) | 6 ± 1 | 10 ± 2 (≈ 34.6 µM) | > 40 | 64 to 256 (≈ 221 to 885 µM) | – | – | – |
| COc1cc(/C=C/C(=O)c2ccno2)cc(OC)c1OC [Compound 29] | 128 (≈ 442 µM) | 64 (≈ 221 µM) | 128 (≈ 442 µM) | 256 (≈ 885 µM) | 8 ± 2 | 8 ± 2 (≈ 27.7 µM) | > 40 | 64 to 256 (≈ 221 to 885 µM) | – | – | – |
| COc1cc(Cl)c(C2CC(c3ccno3)=NN2C(N)=O)c(OC)c1 (stereo not drawn) [Compound 46] | 8 (≈ 22.8 µM) | 8 (≈ 22.8 µM) | 0.5 (≈ 1.43 µM) | 0.5 (≈ 1.43 µM) | 62 ± 1 | 12 ± 2 (≈ 34.2 µM) | > 40 | – | 8 (≈ 22.8 µM) | 2 ± 1 (≈ 5.7 µM) | 0.5 |
